Source: the NIST ThermoML archive (doi:10.1021/je060271a)
Where “and” joins values, the source holds several entries; their conditions need not be identical. Equal values may be shown once.

Details: 343.16 K, Liquid, Vibrating tube method

CCCCCC(=O)OCC(COC(=O)CCCCC)(COC(=O)CCCCC)COC(=O)CCCCC [pentaerythritol tetrahexanoate]
Details	mass density
251.1 kPa	957.3 kg/m3 and 957.2 kg/m3
254 kPa	957.3 kg/m3 and 957.1 kg/m3
254.2 kPa	957.2 kg/m3
254.4 kPa	957.3 kg/m3
254.5 kPa	957.3 kg/m3
255.8 kPa	957.3 kg/m3
255.9 kPa	957.3 kg/m3
256.3 kPa	957.3 kg/m3
258.5 kPa	957.2 kg/m3
258.7 kPa	957.2 kg/m3
258.9 kPa	957.3 kg/m3
259.1 kPa	957.2 kg/m3
260.1 kPa	957.2 kg/m3 and 957.3 kg/m3
263.7 kPa	957.2 kg/m3
264.3 kPa	957.3 kg/m3
264.6 kPa	957.3 kg/m3
264.8 kPa	957.2 kg/m3
265 kPa	957.2 kg/m3
265.1 kPa	957.3 kg/m3
265.5 kPa	957.2 kg/m3
265.7 kPa	957.3 kg/m3
266 kPa	957.2 kg/m3
266.2 kPa	957.3 kg/m3 and 957.2 kg/m3
266.5 kPa	957.3 kg/m3
266.7 kPa	957.3 kg/m3
267 kPa	957.3 kg/m3
267.2 kPa	957.4 kg/m3
267.6 kPa	957.2 kg/m3
267.7 kPa	957.3 kg/m3 and 957.4 kg/m3
268.3 kPa	957.4 kg/m3
268.4 kPa	957.2 kg/m3 and 957.3 kg/m3
268.6 kPa	957.3 kg/m3
269.1 kPa	957.2 kg/m3 and 957.3 kg/m3
269.5 kPa	957.3 kg/m3
269.8 kPa	957.2 kg/m3
270.2 kPa	957.3 kg/m3
270.3 kPa	957.3 kg/m3
270.5 kPa	957.3 kg/m3
271.4 kPa	957.4 kg/m3
271.6 kPa	957.2 kg/m3 and 957.3 kg/m3
271.7 kPa	957.4 kg/m3
272.1 kPa	957.2 kg/m3 and 957.3 kg/m3
272.3 kPa	957.3 kg/m3
272.6 kPa	957.3 kg/m3
273 kPa	957.3 kg/m3
273.3 kPa	957.3 kg/m3
274.7 kPa	957.1 kg/m3
274.9 kPa	957.4 kg/m3
275 kPa	957.2 kg/m3
276.9 kPa	957.4 kg/m3
279.9 kPa	957.2 kg/m3
280.2 kPa	957.4 kg/m3
280.4 kPa	957.3 kg/m3 and 957.4 kg/m3
280.6 kPa	957.3 kg/m3
280.9 kPa	957.2 kg/m3 and 957.3 kg/m3
281.3 kPa	957.3 kg/m3
281.5 kPa	957.3 kg/m3
281.8 kPa	957.2 kg/m3 and 957.4 kg/m3
282.3 kPa	957.4 kg/m3
282.7 kPa	957.4 kg/m3
282.9 kPa	957.3 kg/m3
283 kPa	957.3 kg/m3
283.4 kPa	957.3 kg/m3
283.9 kPa	957.2 kg/m3
284.2 kPa	957.3 kg/m3
284.4 kPa	957.3 kg/m3
284.7 kPa	957.3 kg/m3
284.8 kPa	957.3 kg/m3
285.4 kPa	957.3 kg/m3
290.3 kPa	957.4 kg/m3
290.5 kPa	957.3 kg/m3 and 957.4 kg/m3
290.7 kPa	957.4 kg/m3
293.8 kPa	957.1 kg/m3
294 kPa	957.4 kg/m3
294.3 kPa	957.2 kg/m3
294.7 kPa	957.2 kg/m3
294.8 kPa	957.2 kg/m3
295.2 kPa	957.2 kg/m3
295.5 kPa	957.3 kg/m3
295.9 kPa	957.3 kg/m3
296.4 kPa	957.2 kg/m3
299.9 kPa	957.4 kg/m3 and 957.3 kg/m3
300 kPa	957.4 kg/m3
300.2 kPa	957.4 kg/m3
300.6 kPa	957.2 kg/m3
300.7 kPa	957.3 kg/m3
300.9 kPa	957.2 kg/m3
301.1 kPa	957.2 kg/m3
301.3 kPa	957.3 kg/m3
301.6 kPa	957.4 kg/m3 and 957.3 kg/m3
302.1 kPa	957.3 kg/m3 and 957.4 kg/m3
302.5 kPa	957.2 kg/m3
302.7 kPa	957.3 kg/m3
303 kPa	957.3 kg/m3
303.2 kPa	957.2 kg/m3
304.2 kPa	957.3 kg/m3
304.6 kPa	957.2 kg/m3
304.7 kPa	957.4 kg/m3
305.1 kPa	957.2 kg/m3
305.4 kPa	957.4 kg/m3
307.2 kPa	957.3 kg/m3
310.1 kPa	957.3 kg/m3
310.3 kPa	957.4 kg/m3
310.5 kPa	957.3 kg/m3
310.6 kPa	957.4 kg/m3
312.2 kPa	957.3 kg/m3
312.6 kPa	957.2 kg/m3
313.1 kPa	957.4 kg/m3
313.6 kPa	957.4 kg/m3
313.9 kPa	957.4 kg/m3
314.3 kPa	957.4 kg/m3
314.5 kPa	957.4 kg/m3
314.6 kPa	957.2 kg/m3
314.8 kPa	957.4 kg/m3
315.3 kPa	957.3 kg/m3
315.5 kPa	957.4 kg/m3
317.1 kPa	957.4 kg/m3
317.4 kPa	957.3 kg/m3
318.1 kPa	957.3 kg/m3
321.6 kPa	957.4 kg/m3
322.1 kPa	957.4 kg/m3
325.6 kPa	957.3 kg/m3
328.2 kPa	957.3 kg/m3
328.7 kPa	957.4 kg/m3
328.9 kPa	957.3 kg/m3
329.2 kPa	957.4 kg/m3
329.6 kPa	957.3 kg/m3
329.9 kPa	957.2 kg/m3
330.1 kPa	957.4 kg/m3
330.6 kPa	957.3 kg/m3
330.8 kPa	957.3 kg/m3
331.3 kPa	957.4 kg/m3
331.5 kPa	957.4 kg/m3 and 957.3 kg/m3
332 kPa	957.3 kg/m3
332.4 kPa	957.3 kg/m3
332.5 kPa	957.3 kg/m3
332.9 kPa	957.3 kg/m3
337.1 kPa	957.2 kg/m3
337.6 kPa	957.4 kg/m3
337.8 kPa	957.3 kg/m3
344.9 kPa	957.4 kg/m3
345.2 kPa	957.4 kg/m3 and 957.3 kg/m3
345.9 kPa	957.4 kg/m3
346.4 kPa	957.5 kg/m3
353.7 kPa	957.3 kg/m3 and 957.4 kg/m3
